Test results published in patent US20240239794A1, “PKC-Theta Modulators” (Exscientia AI Limited, priority 2021, published 2024).
Where two headings read alike, the source gives them in different places.

Assays:
[1] = biological target: Recombinant human PKC-theta (His-tagged 362-706) (Homo sapiens (Human), UniProt Q04759); test: PKC-theta inhibition assay (HTRF KinEASE kit); assay type: biochemical; conditions: ATP 6.5 μM
Protocol: (§1) PKC-theta and PKC-delta biochemical activities were measured using the PKC-theta HTRF KinEASEkit kit, according to manufacturer's instructions (Cisbio, catalogue number 61ST1PEJ). Briefly, the kinase buffer component of the kit was supplemented with 10 mM MgCl2, 1 mM DTT and 0.1% Tween 20. For the PKC-theta assay, STK substrate and ATP were added to provide a final assay concentration of 525 nM and 6.5 μM, respectively. For the PKC-delta assay, STK substrate and ATP were added to provide a final assay concentration of 243 nM and 5.7 μM, respectively. The streptavidin_XL665 and STK antibody-cryptate detection reagents were mixed according to the manufacturer's instructions. Test compounds were diluted in DMSO in a series of 10 semi-log step doses; 10 nL of each compound dose were dispensed in 384 well plates. Recombinant human PKC-theta (His-tagged 362-706) or PKC-delta (His-tagged 345-676) was diluted into kinase buffer to provide a final assay concentration of 10 ng/ml and added to the test compound for 30 minutes on ice. The reaction was started by addition of the substrate and ATP and incubated at 25° C. for 30 minutes or 20 minutes for the PKC-theta and PKC-delta assays, respectively. The detection reagents were added, and the plate was incubated in the dark for 2 hours. Fluorescence was measured on an Envision 2103 plate reader with optical setup for […] in the HTRF mode. The ratio of acceptor and donor emission signals was calculated for each well. Percent inhibition values were calculated from the HTRF ratios at different doses and fitted to a 4-parameter logistic curve to determine IC50 values (see Table 1).

[2] = system: IL-2 secretion by human effector memory T cells (TEM); test: Effector memory T cells IL-2 release assay; assay type: cell-based; conditions: T-cell, human CD4+ TEM cells, CD3/CD28 bead stimulation, 24 h
Protocol: Test compound-mediated inhibition of NFκB signalling in T cells was assessed by quantification of the IL-2 secretion by human effector memory T cells (TEM) upon treatment and stimulation. Human TEM cells were isolated from buffy coats of healthy donors obtained from the French blood bank. First, peripheral blood mononuclear cells (PBMC) were purified from buffy coats diluted 1:1 with DPBS (Gibco, cat #14190-094) by Pancoll (PAN BIOTECH, cat #P04-60500) density gradient centrifugation at 400×g for 20 minutes. TEM cells were further enriched by negative immuno-magnetic cell sorting using a human CD4+ Effector Memory T Cell Isolation Kit (Miltenyi, cat #130-094-125) according to the manufacturer's instructions. Aliquots of 3×10E6 purified TEM cells were kept frozen in Cryo-SFM medium (PromoCell, cat #C-29912) in gas phase nitrogen until used. Cell purity was verified by flow cytometry analysis of 200 000 PFA-fixed cells previously labelled with monoclonal antibodies anti-CD4-PerCP-Cy5.5 (BD Pharmigen, cat #332772), anti-CD8-V500 (BD Biosciences, cat #561617), anti-CD14-Pacific Blue (Biolegend, cat #325616), anti-CD45 RA-FITC (Biolegend, cat #304106) and anti-CCR7-APC (in CD4+ Effector Memory T Cell Isolation Kit, Miltenyi, cat #130-094-125).
TEM cells were resuspended in complete RPMI medium composed of: RPMI 1640 (Gibco, cat #31870-025), 10% heat inactivated fetal bovine serum (Sigma, cat #F7524), 2 mM GlutaMAX (Gibco, cat #35050-038), 1 mM sodium pyruvate 100× (Gibco, cat #11360-039), 1% MEM non-essential amino acids solution (Gibco, cat #11140-035) and 100 U/mL penicillin, 100 µg/mL streptomycin (Sigma-Aldrich, cat #11074440001). 5,000 cells per well were plated onto flat clear bottom 384 well plates (Corning, cat #3770). 5,000 Dynabeads Human T-Activator CD3/CD28 (Gibco, cat #11132D) were added to each well for cell stimulation. Finally, 10 doses of test compound, originally prepared in DMSO by serial semi-log step dilution, were also added to cells in triplicate wells. Final DMSO concentration in wells was 0.1% in a total volume of 100 µL complete medium. Plates were incubated for 24 h at 37° C. in 5% CO2 atmosphere. After incubation, cell suspensions were centrifuged at 400×g and culture supernatants were recovered and stored at −80° C. Cell viability was assessed by flow cytometry after staining the cells with Fixable Viability Dye eFluor 780 (Invitrogen, cat #65-0865-14). IL-2 levels were determined in cell supernatants using an HTRF human IL-2 detection kit (Cisbio, cat #62HIL02PEH). IL-2 data at the different compound doses were fitted to a 4-parameter logistic curve to determine IC50 values, corresponding to the compound concentration leading to 50% reduction of the maximal IL-2 levels observed in each experiment. Viability data were analysed similarly to exclude cytotoxicity as a cause of IL-2 decrease (see Table 1).

[3] = biological target: Recombinant human PKC-delta (His-tagged 345-676) (Homo sapiens (Human), UniProt Q05655); test: PKC-delta inhibition assay (HTRF KinEASE kit), PKC-theta/PKC-delta selectivity; assay type: biochemical; conditions: ratio; for PKC-theta/PKC-delta selectivity: PKC-theta over PKC-delta, HTRF assays; for PKC-theta/PKC-delta selectivity (binned): binned A to G
Sequence of Recombinant human PKC-delta (His-tagged 345-676) (Q05655 345-676): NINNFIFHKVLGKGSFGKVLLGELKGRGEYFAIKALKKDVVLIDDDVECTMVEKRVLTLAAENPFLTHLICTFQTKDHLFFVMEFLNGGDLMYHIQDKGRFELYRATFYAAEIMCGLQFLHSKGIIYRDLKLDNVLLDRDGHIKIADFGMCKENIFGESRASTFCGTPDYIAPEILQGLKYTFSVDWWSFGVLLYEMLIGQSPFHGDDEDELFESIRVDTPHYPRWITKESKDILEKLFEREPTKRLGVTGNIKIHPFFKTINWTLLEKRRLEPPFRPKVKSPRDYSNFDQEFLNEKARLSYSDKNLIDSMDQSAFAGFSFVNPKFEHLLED
Protocol: as §1

[4] = binned A to H, read-out: PKC-theta HTRF pIC50 (binned) (converted)
[5] = read-out: PKC-theta HTRF pIC50 (converted)
[6] = binned A to G, read-out: PKC-theta IL2 pIC50 (binned) (converted)
[7] = read-out: PKC-theta IL2 pIC50 (converted)

Sequence of Recombinant human PKC-theta (His-tagged 362-706) (Q04759 362-706): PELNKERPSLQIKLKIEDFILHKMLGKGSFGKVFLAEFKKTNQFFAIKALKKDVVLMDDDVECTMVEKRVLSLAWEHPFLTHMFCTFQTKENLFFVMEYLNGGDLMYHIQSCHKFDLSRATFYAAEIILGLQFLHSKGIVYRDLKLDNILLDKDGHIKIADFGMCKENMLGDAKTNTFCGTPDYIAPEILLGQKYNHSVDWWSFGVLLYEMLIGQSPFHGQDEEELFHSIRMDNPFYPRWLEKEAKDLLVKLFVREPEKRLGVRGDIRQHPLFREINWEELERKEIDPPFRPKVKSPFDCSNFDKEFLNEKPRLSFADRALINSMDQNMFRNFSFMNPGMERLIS

IC50 [1, 4] [nM]	IC50 [1, 5] [nM]	IC50 [2, 6] [nM]	IC50 [2, 7] [nM]	PKC-theta/PKC-delta selectivity [3]	PKC-theta/PKC-delta selectivity (binned) [3]	SMILES
3.16 to 10	3.98	31.6 to 100	100	21	C (C means a ratio of between 20 and 30)	CC[C@@]1(C)C(=O)Nc2nccc(-c3nn([C@H]4CCNC4)c4ccccc34)c21 (single isomer, unassigned) [Example 66]
31.6 to 100	100	> 1000	1260	9	E (E means a ratio of between 5 and 10)	CC[C@]1(O)C(=O)Nc2nccc(-c3nn(C4(CC#N)CCC4)c4ccccc34)c21 (single isomer, unassigned) [Example 69]
≤ 1	0.794	31.6 to 100	50.1	12	D (D means a ratio of between 10 and 20)	CC[C@@]1(O)C(=O)Nc2nccc(-c3nn([C@H]4CCNC[C@H]4F)c4ccccc34)c21 (single isomer, unassigned) [Example 82]
1 to 3.16	1.58	31.6 to 100	63.1	13	D (D means a ratio of between 10 and 20)	CC[C@@]1(O)C(=O)Nc2nccc(-c3nn([C@@H]4CCNC[C@@H]4F)c4ccccc34)c21 (single isomer, unassigned) [Example 83]
31.6 to 100	31.6	> 1000	1260	14	D (D means a ratio of between 10 and 20)	CC[C@]1(O)C(=O)Nc2nccc(-c3nn([C@H]4CCNC[C@H]4F)c4ccccc34)c21 (single isomer, unassigned) [Example 84]
31.6 to 100	50.1	> 1000	1260	10	E (E means a ratio of between 5 and 10)	CC[C@]1(O)C(=O)Nc2nccc(-c3nn([C@@H]4CCNC[C@@H]4F)c4ccccc34)c21 (single isomer, unassigned) [Example 85]
≤ 1	1	10 to 31.6	15.8	11	D (D means a ratio of between 10 and 20)	CO[C@]1(C)C(=O)Nc2nccc(-c3nn([C@@H]4CCNC[C@@H]4F)c4ccccc34)c21 (single isomer, unassigned) [Example 90]
3.16 to 10	7.94	100 to 316	126	19	D (D means a ratio of between 10 and 20)	CO[C@]1(C)C(=O)Nc2nccc(-c3nn([C@H]4CCNC[C@H]4F)c4ccccc34)c21 (single isomer, unassigned) [Example 91]
10 to 31.6	12.6	100 to 316	158	15	D (D means a ratio of between 10 and 20)	CO[C@@]1(C)C(=O)Nc2nccc(-c3nn([C@@H]4CCNC[C@@H]4F)c4ccccc34)c21 (single isomer, unassigned) [Example 92]

Further lines, the molecule ahead of its results:

SMILES	IC50 [1, 4] [nM]	IC50 [1, 5] [nM]	IC50 [2, 6] [nM]	IC50 [2, 7] [nM]	PKC-theta/PKC-delta selectivity [3]	PKC-theta/PKC-delta selectivity (binned) [3]
CC[C@@]1(O)C(=O)Nc2nccc(-c3nn(C4(CC#N)CCC4)c4ccccc34)c21 (single isomer, unassigned) [Example 68]	≤ 1	0.251	10 to 31.6	10	12	D (D means a ratio of between 10 and 20)
CO[C@]1(C)C(=O)Nc2nccc(-c3nn(CC4(F)CCNCC4)c4ccccc34)c21 (single isomer, unassigned) [Example 75]	1 to 3.16	2	31.6 to 100	50.1	19	D (D means a ratio of between 10 and 20)
CO[C@]1(C)C(=O)Nc2nccc(-c3nn(CC4(F)CCNCC4)c4cc(F)ccc34)c21 (single isomer, unassigned) [Example 76]	1 to 3.16	3.16	31.6 to 100	100	22	C (C means a ratio of between 20 and 30)
CO[C@@]1(C)C(=O)Nc2nccc(-c3nn(CC4(F)CCNCC4)c4ccccc34)c21 (single isomer, unassigned) [Example 78]	≤ 1	1	31.6 to 100	50.1	10	D (D means a ratio of between 10 and 20)
CO[C@@]1(C)C(=O)Nc2nccc(-c3nn(CC4(F)CCNCC4)c4cc(F)ccc34)c21 (single isomer, unassigned) [Example 79]	1 to 3.16	1.26	31.6 to 100	50.1	15	D (D means a ratio of between 10 and 20)
CO[C@@]1(C)C(=O)Nc2nccc(-c3nn(C4(CC#N)CCC4)c4ccccc34)c21 (single isomer, unassigned) [Example 80]	≤ 1	0.794	10 to 31.6	20	9	E (E means a ratio of between 5 and 10)
CO[C@]1(C)C(=O)Nc2nccc(-c3nn(C4(CC#N)CCC4)c4ccccc34)c21 (single isomer, unassigned) [Example 81]	31.6 to 100	31.6	316 to 1000	794	20	C (C means a ratio of between 20 and 30)
CC[C@@]1(OC)C(=O)Nc2nccc(-c3nn(CC4(F)CCNCC4)c4ccccc34)c21 (single isomer, unassigned) [Example 88]	3.16 to 10	3.98	100 to 316	200	14	D (D means a ratio of between 10 and 20)
CC[C@]1(OC)C(=O)Nc2nccc(-c3nn(CC4(F)CCNCC4)c4ccccc34)c21 (single isomer, unassigned) [Example 89]	1 to 3.16	2.51	31.6 to 100	79.4	32	B (B means a ratio of between 30 and 50)
